Where two headings read alike, the source gives them in different places.
Tests used:
p38 MAPKα = p38 MAPKα (Homo sapiens (Human), UniProt Q16539); assay: p38 MAPKα enzyme inhibition (FRET, Z-LYTE; Method 2); type: biochemical
Experimental: (§1) The enzyme inhibitory activities of compounds disclosed herein are determined by FRET using synthetic peptides labelled with both donor and acceptor fluorophores (Z-LYTE, Invitrogen Ltd., Paisley, UK).
The inhibitory activities of test compounds against the p38 MAPKα isoform (MAPK14: Invitrogen), are evaluated indirectly by determining the level of activation/phosphorylation of the down-stream molecule, MAPKAP-K2. The p38 MAPKα protein (80 ng/mL, 2.5 μL) is mixed with the test compound (2.5 μL of either 4 μg/mL, 0.4 μg/mL, 0.04 μg/mL or 0.004 μg/mL) for 2 hr at RT. […] The mixture is incubated for 1 hr at RT. Development reagent (protease, 5 μL) is added for 1 hr prior to detection in a fluorescence microplate reader (Varioskan® Flash, ThermoFisher Scientific).
Method 2 This method follows the same steps as Method 1 above, but utilises a higher concentration of the p38 MAPKα protein (2.5 μL of 200 ng/mL protein instead of 2.5 μL of 80 ng/mL protein) for mixing with the test compound.
(§2) In all cases, the site-specific protease cleaves non-phosphorylated peptide only and eliminates the FRET signal. Phosphorylation levels of each reaction are calculated using the ratio of coumarin emission (donor) over fluorescein emission (acceptor), for which high ratios indicate high phosphorylation and low ratios indicate low phosphorylation levels. The percentage inhibition of each reaction is calculated relative to non-inhibited control and the 50% inhibitory concentration (IC50 value) is then calculated from the concentration-response curve.

c-Src = c-Src (Homo sapiens (Human), UniProt P12931); assay: c-Src enzyme inhibition (FRET, Z-LYTE); type: biochemical
Sequence of c-Src (P12931 whole entry, looked up): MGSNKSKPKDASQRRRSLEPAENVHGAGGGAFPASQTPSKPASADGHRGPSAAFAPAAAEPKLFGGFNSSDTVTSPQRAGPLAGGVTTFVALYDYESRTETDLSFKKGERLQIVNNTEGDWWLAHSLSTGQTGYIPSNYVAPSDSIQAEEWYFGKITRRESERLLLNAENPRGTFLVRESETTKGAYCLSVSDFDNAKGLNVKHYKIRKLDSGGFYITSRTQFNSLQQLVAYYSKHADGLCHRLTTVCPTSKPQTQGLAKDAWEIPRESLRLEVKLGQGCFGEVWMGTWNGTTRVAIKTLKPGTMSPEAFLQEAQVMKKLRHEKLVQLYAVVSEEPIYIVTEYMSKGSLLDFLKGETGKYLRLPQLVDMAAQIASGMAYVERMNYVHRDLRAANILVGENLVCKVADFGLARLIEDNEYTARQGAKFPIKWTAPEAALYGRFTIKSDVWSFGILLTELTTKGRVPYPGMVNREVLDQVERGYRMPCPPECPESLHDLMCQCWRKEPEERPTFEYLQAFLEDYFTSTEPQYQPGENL
Experimental: as §1
(§3) The inhibitory activities of compounds of the invention against c-Src and Syk enzymes (Invitrogen), are evaluated in a similar fashion to that described hereinabove. The relevant enzyme (3000 ng/mL or 2000 ng/mL respectively, 2.5 μL) is incubated with the test compound (either 4 μg/mL, 0.4 μg/mL, 0.04 μg/mL, or 0.004 μg/mL, 2.5 μL each) for 2 hr at RT. The FRET peptides (8 μM. 2.5 μL), and appropriate ATP solutions (2.5 μL, 800 μM for c-Src, and 60 μM ATP for Syk) are then added to the enzymes/compound mixtures and incubated for 1 hr. Development reagent (protease, 5 μL) is added for 1 hr prior to detection in a fluorescence microplate reader (Varioskan® Flash, ThermoFisher Scientific).
as §2

Syk = Syk (Homo sapiens (Human), UniProt P43405); assay: Syk enzyme inhibition (FRET, Z-LYTE); type: biochemical
Experimental: as §1, §3, §2

GSK3α = GSK3α (Homo sapiens (Human), UniProt P49840); assay: GSK 3α enzyme inhibition (FRET, Z-LYTE; Method 2); type: biochemical
Sequence of GSK3α (P49840 whole entry): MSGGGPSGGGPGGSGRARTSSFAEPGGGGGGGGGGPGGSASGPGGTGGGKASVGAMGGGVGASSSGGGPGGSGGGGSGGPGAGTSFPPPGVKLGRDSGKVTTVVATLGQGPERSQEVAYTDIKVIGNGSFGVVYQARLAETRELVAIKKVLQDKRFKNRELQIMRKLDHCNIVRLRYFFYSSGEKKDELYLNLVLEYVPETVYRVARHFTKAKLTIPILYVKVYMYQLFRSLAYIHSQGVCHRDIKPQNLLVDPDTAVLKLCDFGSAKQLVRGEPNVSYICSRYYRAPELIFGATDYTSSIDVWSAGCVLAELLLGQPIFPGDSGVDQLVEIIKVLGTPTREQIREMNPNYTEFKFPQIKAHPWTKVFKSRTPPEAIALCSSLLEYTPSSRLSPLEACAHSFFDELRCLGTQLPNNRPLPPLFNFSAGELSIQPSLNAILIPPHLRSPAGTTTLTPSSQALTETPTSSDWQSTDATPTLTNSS
Outline: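 GSK3-α protein preincubated with compound for 105 min, then Z-LYTE FRET peptide and ATP added for 1 h before protease development for 1 h. Phosphorylation taken from coumarin/fluorescein emission ratio; percent inhibition against uninhibited control and IC50 calculated from concentration-response curves.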

d-U937 cells = assay: LPS-induced TNFα/IL-8 release in d-U937 cells; type: cell-based; conditions: Homo sapiens, dU937, LPS-stimulated d-U937 cells
Experimental: U937 cells, a human monocytic cell line, are differentiated to macrophage-type cells by incubation with phorbol myristate acetate (PMA; 100 ng/mL) for 48 to 72 hr. Cells are pre-incubated with final concentrations of test compound for 2 hr and are then stimulated with 0.1 μg/mL of LPS (from E. Coli: O111:B4, Sigma) for 4 hr. The supernatant is collected for determination of TNFα and IL-8 concentrations by sandwich ELISA (Duo-set, R&D systems). The inhibition of TNFα production is calculated as a percentage of that achieved by 10 μg/mL of BIRB796 at each concentration of test compound by comparison against vehicle control. The relative 50% effective concentration (REC50) is determined from the resultant concentration-response curve. The inhibition of IL-8 production is calculated at each concentration of test compound by comparison with vehicle control. The 50% inhibitory concentration (IC50) is determined from the resultant concentration-response curve.

PBMCs [1] = assay: LPS-induced TNFα/IL-8 release in PBMC cells; type: cell-based; conditions: Homo sapiens, LPS-stimulated PBMCs
Outline: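 Cytokines (TNFα, IL-8) in supernatants were quantified by sandwich ELISA after a 24 h challenge with 1 ng/mL E. coli LPS at 37° C, 5% CO2. Healthy-donor PBMCs had been exposed to compound for 2 h beforehand. IC50 values were fitted from the concentration-response curves.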

HT29 cells = assay: IL-1β-induced IL-8 release in HT29 cells; type: cell-based; conditions: Homo sapiens, HT-29, IL-1β-stimulated HT29 cells, read-out: IC50 Values for Inhibition of Cytokine Release, HT29 cells IL-8
Experimental: HT29 cells, a human colon adenocarcinorna cell line, are plated in a 96 well plate (24 hrs) and pre-treated with compounds at the desired concentration for 2 hours before addition of 5 ng/mL of IL-1β (Abcam) for 24 hours. Supernatants are harvested for IL-8 quantification by Sandwich ELISA (Duo-set, R&D System). The IC50 is determined from the dose response curve.

PBMCs [2] = assay: IL-2 and IFN gamma release in CD3/CD28 stimulated PBMC cells; type: cell-based; conditions: Homo sapiens
Experimental: PBMCs from healthy subjects are separated from whole blood using a density gradient (Lymphoprep, Axis-Shield Healthcare). Cells are added to a 96 well plate pre-coated with a mixture of CD3/[…] monoclonal antibodies (0.3 μg/mL eBioscience and 3 μg/mL BD Pharmingen respectively). Compound at the desired concentration is then added to the wells and the plate left for 3 days under normal tissue culture conditions. Supernatants are harvested and IL-2 and IFN gamma release determined by Sandwich ELISA (Duo-set, R&D System). The IC50 is determined from the dose response curve.

[3] = test system: TNBS-induced colitis in mice; assay: TNBS-induced colitis in mice; type: in vivo
Experimental: Non-fasted, 10-12 week old, male BDF1 mice are dosed by oral gavage twice daily with either vehicle (5 mL/kg), reference item (Budesonide 2.5 mg/kg) or test compound (1 or 5 mg/kg) one day before (Day −1) stimulation of the inflammatory response by treatment with 2,4,6-trinitrobenzenesuiphonic acid (TNBS) (15 mg/mL in 50% ethanol/50% saline). On Day 0 of the study TNBS (200 μL) is administered intra-colonically via a plastic catheter followed by BID dosing of the vehicle, reference or test compound for 2 or 4 days. During the study animals are weighed every day and stool observations are made and recorded as a score, based on stool consistency. At the time of sacrifice on Day 2 (or Day 4) the large intestine is removed and the length and weight recorded. Sections of the colon are taken for either MPO analysis to determine neutrophil infiltration or for histopathology involving scoring to determine disease severity.

[4] = IL-8, read-out: IC50 Values for Inhibition of Cytokine Release, dU937 cells IL-8
[5] = TNFα (REC50 relative to BIRB796 per method), read-out: IC50 Values for Inhibition of Cytokine Release, dU937 cells TNFα
[6] = IL-8, read-out: IC50 Values for Inhibition of Cytokine Release, PBMCs IL-8
[7] = IL-2, read-out: IC50 Values for Inhibition of Cytokine Release, PBMCs IL-2
[8] = IFNγ, read-out: IC50 Values for Inhibition of Cytokine Release, PBMCs IFNγ

Sequence of p38 MAPKα (Q16539 whole entry): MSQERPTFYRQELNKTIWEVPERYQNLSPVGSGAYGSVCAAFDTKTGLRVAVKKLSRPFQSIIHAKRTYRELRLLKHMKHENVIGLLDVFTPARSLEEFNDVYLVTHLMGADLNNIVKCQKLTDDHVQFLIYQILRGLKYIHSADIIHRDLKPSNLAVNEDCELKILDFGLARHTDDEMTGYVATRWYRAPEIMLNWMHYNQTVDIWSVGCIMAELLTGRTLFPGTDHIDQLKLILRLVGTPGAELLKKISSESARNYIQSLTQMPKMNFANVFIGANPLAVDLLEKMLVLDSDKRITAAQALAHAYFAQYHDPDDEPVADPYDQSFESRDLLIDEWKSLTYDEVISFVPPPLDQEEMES

IC50 (p38 MAPKα) [nM] | IC50 (c-Src) [nM] | IC50 (Syk) [nM] | IC50 (GSK3α) [nM] | IC50 (d-U937 cells; [4]) [nM] | IC50 (d-U937 cells; [5]) [nM] | IC50 (HT29 cells) [nM] | SMILES | IC50 (PBMCs [1]; [6]) [nM] | IC50 (PBMCs [1]; TNFα, read-out: IC50 Values for Inhibition of Cytokine Release, PBMCs TNFα) [nM] | IC50 (PBMCs [2]; [7]) [nM] | IC50 (PBMCs [2]; [8]) [nM] | TNBS Ulcer grade ([3]; 5 mg/kg oral, conducted over 2 days, vehicle 3.6 ± 0.3 (exp. 1), 4.4 ± 0.2 (exp. 2)) | TNBS LP inflammation ([3]; 5 mg/kg oral, conducted over 2 days, vehicle 3.9 ± 0.3 (exp. 1), 4.5 ± 0.2 (exp. 2)) | activity in in vivo model of colonic inflammation (histopathology analysis) ([3]; conducted over 2 days) | inflammatory cell infiltrate in the reticular and laminar propria zone ([3]; dosed orally at 5 mg/kg) | ulcer grade and epithelial repair compared to the vehicle control ([3]; dosed orally at 5 mg/kg)
56 | > 1000 | > 1000 | > 10000 | 398 | 182 | 632 | CN(c1ccccc1)c1nccc(Oc2ccc(NC(=O)Nc3cc(C(C)(C)C)nn3-c3ccc(P(C)(C)=O)cc3)c3ccccc23)n1 [Example 15, 1-(3-(tert-Butyl)-1-(4-(dimethylphosphoryl)phenyl)-1H-pyrazol-5-yl)-3-(4-((2-(methyl-(phenyl)amino)pyrimidin-4-yl)oxy)naphthalen-1-yl)urea] | 680 | 200 | – | – | – | – | – | – | –
265 | 40 | 97 | 1640 | 2.2 | 1.4 | 13.5 | CC(C)(C)c1cc(NC(=O)Nc2ccc(Oc3ccnc(Nc4ccccc4)n3)c3ccccc23)n(-c2cccc(CP(C)(C)=O)c2)n1 [Example 23, 1-(3-(tert-Butyl)-1-(3-((dimethylphosphoryl)methyl)phenyl)-1H-pyrazol-5-yl)-3-(4-((2-(phenylamino)pyrimidin-4-yl)oxy)naphthalen-1-yl)urea] | 7.5 | – | 42.7 | – | – | – | – | – | –
60 | 5 | 5 | 1320 | – | – | 1.9 | Cc1cc(Nc2nccc(Oc3ccc(NC(=O)Nc4cc(C(C)(C)C)nn4-c4cccc(CP(C)(C)=O)c4)c4ccccc34)n2)cc2cn[nH]c12 [Example 32, 1-(3-(tert-Butyl)-1-(3-((dimethylphosphoryl)methyl)phenyl)-1H-pyrazol-5-yl)-3-(4-((2-((7-methyl-1H-indazol-5-yl)amino)pyrimidin-4-yl)oxy)naphthalen-1-yl)urea] | 1.3 | – | 4.2 | 2.3 | 3.3 ± 0.4 | 2.7 ± 0.4 | significant activity | marked reduction | marked improvements
10 | 2 | 3 | 1250 | 2.9 | 1.6 | 27 | COc1cc(Nc2nccc(Oc3ccc(NC(=O)Nc4cc(C(C)C)nn4-c4cccc(CP(C)(C)=O)c4)c4ccccc34)n2)cc(C(=O)NCCN2CCOCC2)c1 [Example 38, 3-((4-((4-(3-(1-(3-((Dimethylphosphoryl)methyl)phenyl)-3-isopropyl-1H-pyrazol-5-yl)-ureido)naphthalen-1-yl)oxy)pyrimidin-2-yl)amino)-5-methoxy-N-(2-morpholinoethyl)-benzamide] | 3.8 | – | 9.2 | – | – | – | – | – | –
13 | 3 | 1 | 2230 | – | 0.5 | 4.6 | COc1cc(Nc2nccc(Oc3ccc(NC(=O)Nc4cc(C(C)C)nn4-c4cccc(CP(C)(C)=O)c4)c4ccccc34)n2)cc(OCCN2CCOCC2)c1 [Example 39, 1-(1-(3-((Dimethylphosphoryl)methyl)phenyl)-3-isopropyl-1H-pyrazol-5-yl)-3-(4-((2-((3-methoxy-5-(2-morpholinoethoxy)phenyl)amino)pyrimidin-4-yl)oxy)naphthalen-1-yl)urea] | 1.2 | – | – | – | – | – | – | – | –
21 | – | – | 1130 | – | 3.9 | 6.5 | COCCOCCOCCOc1cc(Nc2nccc(Oc3ccc(NC(=O)Nc4cc(C(C)C)nn4-c4cccc(CP(C)(C)=O)c4)c4ccccc34)n2)cc(OC)c1 [Example 45, 1-(1-(3-((Dimethylphosphoryl)methyl)phenyl)-3-isopropyl-1H-pyrazol-5-yl)-3-(4-((2-((3-methoxy-5-(2-(2-(2-methoxyethoxy)ethoxy)ethoxy)phenyl)amino)pyrimidin-4-yl)oxy)naphthalen-1-yl)urea] | 3.3 | – | 19.3 | – | – | – | – | – | –
81 | 7 | 18 | 1240 | 0.9 | – | 1.9 | CC(C)(C)c1cc(NC(=O)Nc2ccc(Oc3ccnc(Nc4cc(OC(F)(F)F)cc(C(=O)NCCN5CCOCC5)c4)n3)c3ccccc23)n(-c2cccc(CP(C)(C)=O)c2)n1 [Example 59, 3-((4-((4-(3-(3-(tert-Butyl)-1-(3-((dimethylphosphoryl)methyl)phenyl)-1H-pyrazol-5-yl)-ureido)naphthalen-1-yl)oxy)pyrimidin-2-yl)amino)-N-(2-morpholinoethyl)-5-(trifluoromethoxy)benzamide] | 0.8 | – | 75.1 | 2.5 | – | – | – | – | –
